ChEMBL document CHEMBL5346920, “Development of the "hidden" multi-target-directed ligands by AChE/BuChE for the treatment of Alzheimer's disease” (Eur J Med Chem, 2023)
Calls of active or inactive are those of the source. The rule behind the calls is not given here.

What was measured:
[1] = target: T1, Cholinesterase (Equus caballus, UniProt P81908); experiment: Drug metabolism assessed as equine serum BuChE-mediated 3-(4-fluorophenyl)-1-(2-hydroxyphenyl)prop-2-en-1-one formation treated at 150 mmol/L with 0.001U BuChE and measured after 9 mins by HPLC analysis; assay type: ADME, cell-free; details: horse, 0.15 h
[2] = target: Cholinesterase (Equus caballus) (UniProt P81908); experiment: Reversible inhibition of equine serum BuChE assessed as enzyme activity using butyrylthiocholine chloride as substrate measured after dilution to 0.1XIC50 for 240 mins by Ellman's method; assay type: cell-free; design: scale not given: the % may be the effect or the level left
[3] = target: T1, Cholinesterase; experiment: Drug metabolism assessed as equine serum BuChE-mediated 3-(4-fluorophenyl)-1-(2-hydroxyphenyl)prop-2-en-1-one formation by measuring decarbamoylation rate constant with 0.25U BuChE for 9 mins by HPLC analysis; assay type: ADME, cell-free; details: horse, 0.15 h
[4] = Acute toxicity in zebra fish assessed as effect on liver fluorescence area at 0.3125 to 1.25 ug/ml and measured at 120 hpf by microscopic analysis; design: species or system Danio rerio; details: zebrafish; dose 0.3125-1.25 µg/ml
[5] = Permeability of the compound at 100 ug/ml incubated for 18 hrs by PAMPA assay; assay type: ADME; details: dose 100 µg/ml, read-out: permeability
[6] = Metal chelating activity assessed as compound-Cu2+ complex formation by measuring maximum absorption wavelength shift from 316 to 446 nm at 37.5 uM incubated for 30 mins in presence of CuCl2 by UV-Vis spectrometry
[7] = Stability of the compound in blank intestinal juice assessed as parent compound remaining at 1 mg/ml measured after 8 hrs by UPLC-MS/MS analysis; assay type: ADME; details: read-out: Stability
[8] = organism: Danio rerio; experiment: Neuroprotective activity against AlCl3-induced Alzheimer's disease zebra fish model assessed as distance velocity at 0.078 ug/ml treated for 24 hrs and measured after 24 hrs under alternating light dark stimuli conditions (reference value: 9 cm/min); assay type: functional; details: dose 0.078 µg/ml; time 48 hrs
[9] = target: T2, Acetylcholinesterase (Electrophorus electricus, UniProt O42275); experiment: Drug metabolism assessed as electric eel AChE-mediated 3-(4-fluorophenyl)-1-(2-hydroxyphenyl)prop-2-en-1-one formation treated with 0.25U AChE for 9 mins by HPLC analysis; assay type: ADME; details: 0.15 h
[10] = Selectivity index, ratio of IC50 for inhibition of electric eel AChE to IC50 for inhibition of equine serum BuChE
[11] = target: Cholinesterase (Equus caballus) (UniProt P81908); experiment: Reversible inhibition of equine serum BuChE assessed as enzyme activity using butyrylthiocholine chloride as substrate measured after dilution to 1XIC50 by Ellman's method; assay type: cell-free; design: scale not given: the % may be the effect or the level left
[12] = Stability of the compound in blank gastric juice assessed as parent compound remaining at 1 mg/ml measured after 8 hrs by UPLC-MS/MS analysis; assay type: ADME; details: read-out: Stability
[13] = Stability of the compound in artificial gastric juice assessed as parent compound remaining at 1 mg/ml measured after 8 hrs by UPLC-MS/MS analysis; assay type: ADME; details: read-out: Stability
[14] = tested on: PC-12; experiment: Neuroprotective activity against Amyloid beta(25 to 35)-induced cell injury in rat PC12 cells assessed as cell viability at 10 uM pretreated for 2 hrs followed by incubation with Abeta(25 to 35) for 24 hrs by CCK-8 assay (reference value: 41 to 58.6%); assay type: functional; details: time 26 hrs, read-out: Activity
[15] = organism: Danio rerio; experiment: Antialzheimer activity against AlCl3-induced Alzheimer's disease zebra fish model assessed as improvement in total distance velocity at 0.0195 ug/ml treated for 24 hrs and measured after 24 hrs; assay type: functional, organism-based; details: dose 0.0195 µg/ml, time 48.0 hrs
[16] = target: Cholinesterase (Equus caballus) (UniProt P81908); experiment: Reversible inhibition of equine serum BuChE assessed as enzyme activity using butyrylthiocholine chloride as substrate measured after dilution to 0.1XIC50 by Ellman's method; assay type: cell-free; design: scale not given: the % may be the effect or the level left
[17] = organism: Danio rerio; experiment: Antialzheimer activity against AlCl3-induced Alzheimer's disease zebra fish model assessed as total distance moved at 0.0049 ug/ml treated for 24 hrs and measured after 24 hrs under alternating light dark stimuli conditions (reference value: 543 cm); assay type: functional; details: dose 0.0049 µg/ml; time 48 hrs
[18] = organism: Danio rerio; experiment: Neuroprotective activity against AlCl3-induced Alzheimer's disease zebra fish model assessed as distance velocity at 0.0195 ug/ml treated for 24 hrs and measured after 24 hrs under alternating light dark stimuli conditions (reference value: 9 cm/min); assay type: functional; details: dose 0.0195 µg/ml; time 48 hrs
[19] = Stability of the compound in rat liver microsomes assessed as parent compound remaining at 10 ug/ml measured after 60 mins by UPLC-MS/MS analysis; assay type: ADME, Microsome; details: at 10 µg/mL, read-out: Stability
[20] = tested on: PC-12; experiment: Neuroprotective activity against Amyloid beta(25 to 35)-induced cell injury in rat PC12 cells assessed as cell viability at 20 uM pretreated for 2 hrs followed by incubation with Abeta(25 to 35) for 24 hrs by CCK-8 assay (reference value: 41 to 58.6%); assay type: functional; details: time 26 hrs, read-out: Activity
[21] = organism: Danio rerio; experiment: Antialzheimer activity against AlCl3-induced Alzheimer's disease zebra fish model assessed as total distance moved at 0.078 ug/ml treated for 24 hrs and measured after 24 hrs under alternating light dark stimuli conditions (reference value: 543 cm); assay type: functional; details: dose 0.078 µg/ml; time 48 hrs
[22] = target: T1, Cholinesterase; experiment: Drug metabolism assessed as equine serum BuChE-mediated 3-(4-fluorophenyl)-1-(2-hydroxyphenyl)prop-2-en-1-one formation with 0.25U BuChE for 9 mins by HPLC analysis; assay type: ADME, cell-free; details: horse, 0.15 h
[23] = organism: Danio rerio; experiment: Antialzheimer activity against AlCl3-induced Alzheimer's disease zebra fish model assessed as total distance moved at 0.078 ug/ml treated for 24 hrs and measured after 24 hrs under dark environment (reference value: 312 cm); assay type: functional; details: dose 0.078 µg/ml; time 48 hrs
[24] = organism: Danio rerio; experiment: Neuroprotective activity against AlCl3-induced Alzheimer's disease zebra fish model assessed as distance velocity at 0.078 ug/ml treated for 24 hrs and measured after 24 hrs under light environment (reference value: 7.7 cm/min); assay type: functional; details: dose 0.078 µg/ml; time 48 hrs
[25] = organism: Danio rerio; experiment: Antialzheimer activity against AlCl3-induced Alzheimer's disease zebra fish model assessed as total distance moved at 0.0049 ug/ml treated for 24 hrs and measured after 24 hrs under dark environment (reference value: 312 cm); assay type: functional; details: dose 0.0049 µg/ml; time 48 hrs
[26] = target: T1, Cholinesterase; experiment: Inhibition of equine serum BuChE using butyrylthiocholine chloride as substrate by Ellman's method; assay type: cell-free
[27] = target: T2, Acetylcholinesterase; experiment: Drug metabolism assessed as electric eel AChE-mediated 3-(4-fluorophenyl)-1-(2-hydroxyphenyl)prop-2-en-1-one formation treated at 150 mmol/L with 0.001U AChE and measured after 9 mins by HPLC analysis; assay type: ADME; details: 0.15 h
[28] = Metal chelating activity assessed as compound-Zn2+ complex formation at 37.5 uM incubated for 30 mins in presence of ZnCl2 by UV-Vis spectrometry
[29] = organism: Danio rerio; experiment: Neuroprotective activity against AlCl3-induced Alzheimer's disease zebra fish model assessed as distance velocity at 0.0195 ug/ml treated for 24 hrs and measured after 24 hrs under light environment (reference value: 7.7 cm/min); assay type: functional; details: dose 0.0195 µg/ml; time 48 hrs
[30] = target: T2, Acetylcholinesterase; experiment: Drug metabolism assessed as electric eel AChE-mediated 3-(4-fluorophenyl)-1-(2-hydroxyphenyl)prop-2-en-1-one formation by measuring decarbamoylation rate constant treated with 0.25U AChE for 9 mins by HPLC analysis; assay type: ADME; details: 0.15 h
[31] = target: T1, Cholinesterase; experiment: Drug metabolism assessed as equine serum BuChE-mediated 3-(4-fluorophenyl)-1-(2-hydroxyphenyl)prop-2-en-1-one formation treated at 150 mmol/L with 0.25U BuChE and measured after 6 mins by HPLC analysis; assay type: ADME, cell-free; details: horse, 0.1 h

T2 sequence (O42275 whole entry): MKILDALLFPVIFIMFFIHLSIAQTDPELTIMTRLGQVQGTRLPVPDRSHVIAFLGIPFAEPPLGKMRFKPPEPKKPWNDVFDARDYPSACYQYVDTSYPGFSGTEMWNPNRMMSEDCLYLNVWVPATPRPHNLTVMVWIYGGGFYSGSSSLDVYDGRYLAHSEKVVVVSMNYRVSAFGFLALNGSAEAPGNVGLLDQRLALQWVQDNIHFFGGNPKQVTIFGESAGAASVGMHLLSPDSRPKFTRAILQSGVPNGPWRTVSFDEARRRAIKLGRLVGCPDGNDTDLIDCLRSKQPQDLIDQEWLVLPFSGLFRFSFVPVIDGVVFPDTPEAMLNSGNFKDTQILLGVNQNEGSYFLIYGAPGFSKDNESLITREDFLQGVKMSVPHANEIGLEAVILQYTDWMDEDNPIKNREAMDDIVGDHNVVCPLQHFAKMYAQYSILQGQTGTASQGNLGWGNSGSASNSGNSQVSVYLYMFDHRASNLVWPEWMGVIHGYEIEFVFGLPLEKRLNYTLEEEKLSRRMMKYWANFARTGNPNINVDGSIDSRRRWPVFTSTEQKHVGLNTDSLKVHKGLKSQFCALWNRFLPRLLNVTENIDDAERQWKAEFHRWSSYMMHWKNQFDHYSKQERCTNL
T1 sequence (P81908 whole entry): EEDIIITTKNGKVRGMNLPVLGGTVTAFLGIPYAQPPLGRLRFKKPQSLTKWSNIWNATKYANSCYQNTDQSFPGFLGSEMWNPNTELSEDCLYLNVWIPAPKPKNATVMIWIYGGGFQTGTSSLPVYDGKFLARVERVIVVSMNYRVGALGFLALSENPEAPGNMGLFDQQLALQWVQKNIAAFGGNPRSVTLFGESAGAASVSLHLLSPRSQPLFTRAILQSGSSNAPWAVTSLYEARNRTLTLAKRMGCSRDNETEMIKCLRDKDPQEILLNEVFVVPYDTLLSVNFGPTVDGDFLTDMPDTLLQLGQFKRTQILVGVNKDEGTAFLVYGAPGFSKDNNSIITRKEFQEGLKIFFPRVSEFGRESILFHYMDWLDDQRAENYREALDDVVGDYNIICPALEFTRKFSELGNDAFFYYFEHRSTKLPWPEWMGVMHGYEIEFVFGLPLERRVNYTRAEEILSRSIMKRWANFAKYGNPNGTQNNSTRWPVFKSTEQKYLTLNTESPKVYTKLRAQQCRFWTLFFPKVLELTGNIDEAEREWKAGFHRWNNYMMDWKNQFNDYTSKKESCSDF
Chain of Cholinesterase (Equus caballus) (P81908 whole entry): as above

## CCN(C)C(=O)Oc1ccccc1C(=O)/C=C/c1ccc(F)cc1
[1]
  Drug metabolism: 2.52 mmol/L
[2]
  Activity: 93.3%
[3]
  K: 4.05 M⁻¹ s⁻¹
[4]
  Activity: Non-Toxic
[5]
  Papp at 18 h, 100 ug/ml: 16.8 ×10⁻⁶ cm/s
[6]
  Activity: inactive
[7]
  remaining at 8 h, 1 mg/ml: 98.5%
[8]
  Activity: 12.7 cm/min
[9]
  Km: 85.3 µM
[10]
  Ratio IC50: 0.43
[11]
  Activity: 51.7%
[12]
  remaining at 8 h, 1 mg/ml: 103%
[13]
  remaining at 8 h, 1 mg/ml: 97.3%
[14]
  viability at 10 µM: 75%
[15]
  Activity: Active
[16]
  Activity: 52.6%
[17]
  Activity: 764 cm
[18]
  Activity: 15.3 cm/min
[19]
  remaining at 1 h, 10 ug/ml: 96.2%
[20]
  viability at 20 µM: 79.7%
[21]
  Activity: 763 cm
[22]
  Km: 113 µM
[23]
  Activity: 537 cm
[24]
  Activity: 7.5 cm/min
[25]
  Activity: 391 cm
[26]
  IC50: 12.4 µM
[27]
  Drug metabolism: 5.56 mmol/L
[28]
  Activity: inactive
[29]
  Activity: 11.5 cm/min
[30]
  K: 5.2 M⁻¹ s⁻¹
[31]
  Drug metabolism: 14.62 mmol/L
